For assay [1], the target named is T1, human colonic mucus (Muc2) (Homo sapiens, UniProt Q02817).
T1 construct: Segments of human colon (ascending, descending and sigmoid colon) were obtained from fully informed patients undergoing surgery; from tissue; host or cells: healthy human colon segments (live explants, mucus collected from them, Carnoy- or formol-fixed sections)
Briefly: Immunofluorescent staining of human mucus and fixed human colon samples. The following applies: human mucus extract collected on ex vivo tissues. The source says:
FIGS. 4A-4B. Cy5-MUB70 is specifically binding to the glycosylated moiety of Muc2 secreted in the colon mucus layer. (FIG. 4A) Immunodetection of Muc2, Muc5ac, Muc5b and Muc6 (dotblot analysis) on human mucus extracts eluted after a pulldown assay performed with biot-MUB70 on avidin conjugated beads (see Methods). Biotin is used as a negative control. Immunodetection of Muc2 (dotblot analysis) on deglycosylated mucus extracts eluted after a pulldown assay performed with biot-MUB70 on avidin conjugated beads. Non-deglycosylated mucus extract is used as a positive control. (FIG. 4B) Co-localization of Muc2 (green) and Cy5-MUB (blue) observed on fixed (Carnoy) human colon samples. Actin is stained in red (Phall.RRX). Observations are performed using a confocal microscope. Bars is 20 μm.
FIGS. 9A-9B. (FIG. 9A) Co-localization of Muc2 (green) and Cy5-MUB (blue) performed by immunofluorescent detection on human mucus extract collected on ex vivo tissues using an epifluorescent microscope. Bar is 50 μm. […]
For immunofluorescence assay mouse α-MUC2 pAbs (Santa Cruz sc-15334) was diluted 1:1000 and FITC-conjugated rabbit anti-mouse was diluted 1:2000. Host cells were detected with DAPI (nuclei, […]) or using Phalloidin-Rhodamine red X (RRX)-conjugated donkey anti-mouse antibodies (Jackson Immunoresearch Antibodies) as an actin marker (stained red); both were used at a final dilution of 1:1000. […]

The target in assay [2] is T2, human colonic mucus and goblet cells (Homo sapiens, UniProt Q02817).
T2 construct: Segments of human colon (ascending, descending and sigmoid colon) were obtained from fully informed patients undergoing surgery; from tissue; host or cells: healthy human colon segments (live explants, mucus collected from them, Carnoy- or formol-fixed sections)
Briefly: Fluorescent staining of healthy human colon, formol fixed, paraffin embedded samples. The following applies: fixed samples, 1 μg/mL. The protocol: FIG. 22. Schematic description of the Cy5-MUB40-1, Cy5-MUB40-2, Cy5-MUB40-3, Cy5-MUB40-4 peptides (SEQ ID NOS 62 to 65). Fluorescent staining of human colonic mucus was performed by the addition of 1 μg/mL of the corresponding Cy5-conjugated peptides with Phalloidin-RRX (1:100) on formol fixed, paraffin embedded samples. Image acquisition was performed using a fluorescent confocal microscope (see Methods).
FIG. 23 Comparative staining analysis of human colonic goblet cells using Cy5-MUB70 and Cy5-MUB40-1. Fluorescent staining of human colonic mucus was performed by the addition of 1 μg/mL of the corresponding Cy5-conjugated peptides with Phalloidin-RRX (1:100) on formol fixed, paraffin embedded samples. Image acquisition was performed using a fluorescent confocal microscope (see Methods).
FIGS. 24A-24B. Comparative human colonic mucus staining using MUB70-Cy5 on healthy tissues and mucinous carcinomas (Coic et al, JBC, 2012 (41)). Fluorescent staining of human colonic mucus was performed by the addition of 1 μg/mL of the corresponding Cy5-conjugated peptides with Phalloidin-RRX (1:100) on formol fixed, paraffin embedded samples. Image acquisition was performed using a fluorescent confocal microscope (see Methods).
As colonic mucinous carcinomas are characterized by abnormal overproduction of Muc2 in the colon mucosa (40), the inventors have hypothesized that Cy5-MUB70 could be used as a novel fluorescent marker for the diagnosis of this pathology. […] As shown previously on a healthy colon (FIG. 3B), the luminal mucus secreted fraction is detected by Cy5-MUB70 (FIG. 24A, top panel). […] This observation might be the consequence of a higher level of mucus compaction, resulting in a lower accessibility for MUB70 to bind Muc2. […] Cy5-MUB70 has been validated as a potent innovative diagnostic tool for colonic mucinous carcinoma detection and might be optimized with alternative markers (e.g. biotin) for practical clinical applications.

In assay [3] the test system is human neutrophil (PMN) granules. Briefly: Human neutrophil (PMN) granule staining. It counts as cell-based. The following applies: for PMN granule staining: PMN purified from human blood, fixed in 4% PFA, 1 μg/mL; for signal brightness of PMN granule staining: fixed PMN, compared among Cy5-MUB40 probes. How it is done: FIG. 14. Staining of individual neutrophiles (white blood cells) in human blood sample. Cy5-MUB70 was incubated on ethanol 100% fixed blood sample. […] (Details are provided on the Figure). […] In particular, granules staining is achieved.
FIG. 15. Staining of individual neutrophiles (white blood cells) purified from fresh human blood sample. Cy5-MUB70 was incubated on PFA 4% fixed neutrophiles (PFA treatment for 15 min, wash 3 times in PBS). Signal was detected as dots distributed in neutrophile cytoplasms. (Staining with Dapi 1:1000 and EB1C5 1:1000 in PBS+10% FCS+0.1% Saponin). […] In particular, granules staining is achieved.
FIG. 29. Identification of Muc2 in neutrophile granules using MUB70-Cy5. Human neutrophil (PMN) granule staining using Cy5-MUB70. PMN were purified from healthy donor blood samples and fixed in the presence of 4% PFA. Fluorescent staining of human colonic mucus was performed by the addition of 1 μg/mL of Cy5-MUB70 (Red) with Dapi (1:100) (Blue) and 1:200 anti-Muc2 antibody (Green). Image acquisition was performed using a fluorescent confocal microscope (see Methods).
FIG. 31. Identification of Muc2 in neutrophile granules. Human neutrophil (PMN) granule staining using Cy5-MUB40-1, Cy5-MUB40-2, Cy5-MUB40-3, Cy5-MUB40-4 peptides. Schematic description of the Cy5-conjugated peptides. PMN were purified from healthy donor blood samples and fixed in the presence of 4% PFA. Fluorescent staining of human colonic mucus was performed by the addition of 1 μg/mL of the Cy5-conjugated peptides (Green) with Dapi (1:100) (Blue) and Phalloidin-RRX (1:1000) (Red). Image acquisition was performed using a fluorescent confocal microscope (see Methods).
The invention has also proven to be useful for the monitoring of neutrophile degranulation events, in particular by using MUB70 and/or MUB40 polypeptides or polypeptides sharing identity with MUB70 and/or MUB40 polypeptides, or fragments thereof, for labelling neutrophile granule(s).

No end group written: not given here.

Take `CCN1/C(=C/C=C/C=C/C2=[N+](CCCCCC(=O)O)c3ccc(S(=O)(=O)O)cc3C2(C)C)C(C)(C)c2cc(S(=O)(=O)[O-])ccc21` [Cy5, reference compound]: in assay [1], the human mucus binding entry is “does not have the property to bind human mucus”. In the case of “Cy5-MUB40-1: Cy5-conjugated MUB40-1 peptide with N-terminal cysteine (SEQ ID NO: 62) (C(Cy5)TAEGIKKFEGDGYELFKDNFPAGEKFDNDDTNDQFYTVIF; not fully specified)”, the goblet cells binding entry in assay [2] (human colonic goblet cells) is “possessing globlet-cells binding properties”. Moreover, the human mucus binding entry in assay [2] (human colonic mucus) is listed as “functional human mucus-binding peptide”. In addition, in assay [3], the PMN granule staining entry is “efficiently stained” and the “signal brightness of PMN granule staining” value is given as “brighter signal”. On to “Cy5-MUB40-2: Cy5-conjugated MUB40-2 peptide with N-terminal cysteine (SEQ ID NO: 63) (C(Cy5)GYTDETIPYSTAEGIKKFEGDGYELFKDNFPAGEKFDNDD; not fully specified)”, for which, in assay [3], the PMN granule staining result is recorded as “efficiently stained”. The same measure, in the same setting: the result for “Cy5-MUB40-3: Cy5-conjugated MUB40-3 peptide with N-terminal cysteine (SEQ ID NO: 64) (C(Cy5)DQMLRQDDLDGYTDETIPYSTAEGIKKFEGDGYELFKDNF; not fully specified)” reads “efficiently stained”. As to “Cy5-MUB40-4: Cy5-conjugated MUB40-4 peptide with N-terminal cysteine (SEQ ID NO: 65) (C(Cy5)VHVQYIDGETDQMLRQDDLDGYTDETIPYSTAEGIKKFEG; not fully specified)”, in assay [3], the PMN granule staining result is “efficiently stained” and the “signal brightness of PMN granule staining” value was “brighter signal”.

The values above are taken from patent US10138280B2, “Polypeptides targeting glycosylated MUC2 proteins, methods of synthesis, their nucleic acids and uses thereof” (INSTITUT PASTEUR, priority 2011, dated 2018).
